For 17 molecules, IC50 results are on record in US20250353848A1, “HETEROCYCLIC PAD4 INHIBITORS” (Celgene Corporation, priority 2022, published 2025).

The target of assay [1] is T1, hPAD4 enzyme (Homo sapiens, UniProt Q9UM07). The assay is described as follows: RFMS Assay 1 (rapid-fire mass spectrum PAD4 inhibition assay, BAEE substrate). It is filed as biochemical. The following applies: 5 nM hPAD4 enzyme, 250 μM BAEE, 30 mins compound and enzyme preincubation at 37° C., 90 min enzyme/substrate reaction. The gist of the method: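 Human PAD4 (5 nM) preincubated 30 min at 37 °C with compound (top 50 μM, 0.5% DMSO), then 250 μM BAEE for 90 min at 37 °C in pH 7.5 HEPES with 50 μM calcium, 5 μM TPEN, 1 mM DTT. Product derivatized with phenyl glyoxal; citrulline product quantified by RapidFire MS/MS MRM, normalized to internal standard.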

The target of assay [2] is T1, hPAD4 enzyme. Kind of assay: RFMS Assay 2 (rapid-fire mass spectrum PAD4 inhibition assay, peptide substrate). It is filed as biochemical. As to conditions: 35 nM recombinant human PAD4, substrate TSTGGRQGSHH, room temperature for 30 minutes; read-out: human PAD4 (hPAD4) IC50, RFMS Assay 2. As for the experimental part:
Stock compounds were dissolved and stored in 100% DMSO. Compound solutions were prepared via serial dilution at 3-fold intervals in DMSO with top compound concentration at […] in each assay. 0.25 μl of compound solution was transferred from the compound plate to the assay plate by using an acoustic dispenser. Final assay conditions: • Total reaction volume: 25 μl • Assay buffer: […] pH 7.4, 200 mM NaCl, 2 mM CaCl2, 5 mM DTT • 35 nM recombinant human PAD4 • 500 µM TSTGGRQGSHH (SEQ ID NO: 1) • 1.2% DMSO • Stop solution: 10% formic acid
Reaction mixtures were incubated at room temperature for 30 minutes. 10 μl each of the reaction mixtures was then mixed with 40 μl of 10% formic acid in a microtiter plate. The plate was frozen at −80° C. before shipping out on dry ice for RapidFire mass spectroscopy analysis.
Thawed samples were loaded onto the Rapid Fire 300 system (Agilent) wherein they were first sipped for 250 ms and then loaded onto a Agilent “C” (C18) cartridge using a mobile phase of water containing 0.09% formic acid/0.01% trifluoroacetic acid for 3000 ms desalting flowing at a rate of 1.5 ml/min. Once the samples were loaded and washed, a mobile phase of acetonitrile containing 0.09% formic acid/0.01% trifluoroacetic acid was used to elute the samples directly onto a Sciex API4000 triple quadrupole mass spectrometer for 3000 ms at a flow rate of 1.25 ml/min.
MRM transitions for substrate and product were monitored in positive ESI mode at m/z=562.3/969.7 and m/z=562.8/541.3 respectively. The dwell time for each transition was set at 100 ms, and the ESI voltage was used at 5500 with a source temperature of 650° C. Extracted ion peaks for each transition were integrated using the Rapid Fire Integrator software.

T1 sequence (Q9UM07 whole entry): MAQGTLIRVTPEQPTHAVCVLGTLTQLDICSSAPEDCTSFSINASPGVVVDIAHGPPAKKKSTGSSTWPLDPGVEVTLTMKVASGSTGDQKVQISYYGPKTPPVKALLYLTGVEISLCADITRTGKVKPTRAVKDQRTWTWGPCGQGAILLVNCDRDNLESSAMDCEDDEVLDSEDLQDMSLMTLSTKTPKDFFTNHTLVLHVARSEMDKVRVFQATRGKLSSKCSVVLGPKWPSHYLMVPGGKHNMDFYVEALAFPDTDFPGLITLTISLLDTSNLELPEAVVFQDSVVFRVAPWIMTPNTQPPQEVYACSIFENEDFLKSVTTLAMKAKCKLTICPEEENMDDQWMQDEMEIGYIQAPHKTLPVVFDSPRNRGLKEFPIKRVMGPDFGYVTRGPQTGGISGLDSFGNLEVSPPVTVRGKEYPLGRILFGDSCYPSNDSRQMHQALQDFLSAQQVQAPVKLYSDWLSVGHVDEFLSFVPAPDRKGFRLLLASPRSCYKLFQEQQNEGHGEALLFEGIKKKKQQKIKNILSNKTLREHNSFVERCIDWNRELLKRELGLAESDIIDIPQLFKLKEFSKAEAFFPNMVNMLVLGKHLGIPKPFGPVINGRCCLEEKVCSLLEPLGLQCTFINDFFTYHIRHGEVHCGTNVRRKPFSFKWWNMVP

Take `COc1cc(F)cc2cc(-c3nc4cc5c(nc4n3C)CCN(C[C@H](N)CF)C5=O)n(Cc3ccno3)c12` [Example 22, (S)-7-(2-amino-3-fluoropropyl)-2-(5-fluoro-1-(isoxazol-5-ylmethyl)-7-methoxy-1H-indol-2-yl)-3-methyl-3,5,6,7-tetrahydro-8H-imidazo[4,5-b][1,6]naphthyridin-8-one]: the concentration for half-maximal inhibition (IC50) at hPAD4 enzyme [1] and on hPAD4 enzyme [2] was 101 to 500 nM in each case.

For the molecule `C[C@@H](COc1cccc2cc(-c3nc4cc5c(nc4n3C)CCN(C[C@H](N)CF)C5=O)n(CC3CC3)c12)n1cnc(F)c1` [Example 86, 7-((S)-2-amino-3-fluoropropyl)-2-(1-(cyclopropylmethyl)-7-((S)-2-(4-fluoro-1H-imidazol-1-yl)propoxy)-1H-indol-2-yl)-3-methyl-3,5,6,7-tetrahydro-8H-imidazo[4,5-b][1,6]naphthyridin-8-one], the IC50 against hPAD4 enzyme [1] was ≤ 10 nM; on hPAD4 enzyme [2], 11 to 100 nM.

On to `Cn1c(-c2cc3cccc(OCCn4cncc4F)c3n2CC2CC2)nc2cc3c(nc21)CCN(C[C@H](N)CF)C3=O` [Example 42, (S)-7-(2-amino-3-fluoropropyl)-2-(1-(cyclopropylmethyl)-7-(2-(5-fluoro-1H-imidazol-1-yl)ethoxy)-1H-indol-2-yl)-3-methyl-3,5,6,7-tetrahydro-8H-imidazo[4,5-b][1,6]naphthyridin-8-one], for which the IC50 was 11 to 100 nM at hPAD4 enzyme [1] and 101 to 500 nM at hPAD4 enzyme [2].

As to `Cc1cncn1CCOc1cccc2cc(-c3nc4cc5c(nc4n3C)CCN(C[C@H](N)CF)C5=O)n(CC3CC3)c12` [Example 71, (S)-7-(2-amino-3-fluoropropyl)-2-(1-(cyclopropylmethyl)-7-(2-(5-methyl-1H-imidazol-1-yl)ethoxy)-1H-indol-2-yl)-3-methyl-3,5,6,7-tetrahydro-8H-imidazo[4,5-b][1,6]naphthyridin-8-one], the IC50 at hPAD4 enzyme [1] is 11 to 100 nM; on hPAD4 enzyme [2] it was 101 to 500 nM.

As for `Cn1c(-c2cc3cccc(OCCc4cnco4)c3n2CC2CC2)nc2cc3c(nc21)CCN(C[C@H](N)CF)C3=O` [Example 41, (S)-7-(2-amino-3-fluoropropyl)-2-(1-(cyclopropylmethyl)-7-(2-(oxazol-5-yl)ethoxy)-1H-indol-2-yl)-3-methyl-3,5,6,7-tetrahydro-8H-imidazo[4,5-b][1,6]naphthyridin-8-one], the IC50 against hPAD4 enzyme [1] was ≤ 10 nM; at hPAD4 enzyme [2], 11 to 100 nM.

As to `Cc1nnc(CCOc2cccc3cc(-c4nc5cc6c(nc5n4C)CCN(C[C@H](N)CF)C6=O)n(CC4CC4)c23)o1` [Example 54, (S)-7-(2-amino-3-fluoropropyl)-2-(1-(cyclopropylmethyl)-7-(2-(5-methyl-1,3,4-oxadiazol-2-yl)ethoxy)-1H-indol-2-yl)-3-methyl-3,5,6,7-tetrahydro-8H-imidazo[4,5-b][1,6]naphthyridin-8-one], the IC50 against hPAD4 enzyme [1] and on hPAD4 enzyme [2] was 11 to 100 nM in each case.

Consider `[2H]C([2H])(Oc1cccc2cc(-c3nc4cc5c(nc4n3C)CCN(C[C@H](N)CF)C5=O)n(CC3CC3)c12)C([2H])([2H])n1ccnc1` [Example 95, (S)-2-(7-(2-(1H-imidazol-1-yl)ethoxy-1,1,2,2-d4)-1-(cyclopropylmethyl)-1H-indol-2-yl)-7-(2-amino-3-fluoropropyl)-3-methyl-3,5,6,7-tetrahydro-8H-imidazo[4,5-b][1,6]naphthyridin-8-one], for which the IC50 against hPAD4 enzyme [1] is ≤ 10 nM; on hPAD4 enzyme [2], 11 to 100 nM.

With `Cn1c(-c2cc3ccc(C(C)(C)O)nc3n2CC2CC2)nc2cc3c(nc21)CCN(C[C@H](N)CF)C3=O` [Example 33, (S)-7-(2-amino-3-fluoropropyl)-2-(1-(cyclopropylmethyl)-6-(2-hydroxypropan-2-yl)-1H-pyrrolo[2,3-b]pyridin-2-yl)-3-methyl-3,5,6,7-tetrahydro-8H-imidazo[4,5-b][1,6]naphthyridin-8-one], the IC50 at hPAD4 enzyme [1] lay in the range of 11 to 100 nM; on hPAD4 enzyme [2], 501 to 1000 nM.

In the case of `COc1cccc2cc(-c3nc4cc5c(nc4n3C)CCN(C[C@H](N)CF)C5=O)n(Cc3ncco3)c12` [Example 8, (S)-7-(2-amino-3-fluoropropyl)-2-(7-methoxy-1-(oxazol-2-ylmethyl)-1H-indol-2-yl)-3-methyl-3,5,6,7-tetrahydro-8H-imidazo[4,5-b][1,6]naphthyridin-8-one], the half-maximal inhibitory concentration (IC50) on hPAD4 enzyme [1] and on hPAD4 enzyme [2] was 501 to 1000 nM throughout.

As for `C[C@@H](N)CN1CCc2nc3c(cc2C1=O)nc(-c1cc2ccccc2n1CC1CC1)n3C` [Example 24, (R)-7-(2-aminopropyl)-2-(1-(cyclopropylmethyl)-1H-indol-2-yl)-3-methyl-3,5,6,7-tetrahydro-8H-imidazo[4,5-b][1,6]naphthyridin-8-one], the IC50 against hPAD4 enzyme [1] fell in the range of 11 to 100 nM; at hPAD4 enzyme [2] it was 501 to 1000 nM.

Consider `COc1cccc2cc(-c3nc4cc5c(nc4n3C)CCN(C[C@H](N)CF)C5=O)n(Cc3cc(C)no3)c12` [Example 12, (S)-7-(2-amino-3-fluoropropyl)-2-(7-methoxy-1-((3-methylisoxazol-5-yl)methyl)-1H-indol-2-yl)-3-methyl-3,5,6,7-tetrahydro-8H-imidazo[4,5-b][1,6]naphthyridin-8-one], for which the IC50 on hPAD4 enzyme [1] and at hPAD4 enzyme [2] was 101 to 500 nM each time.

On to `Cn1c(-c2cc3ccccc3n2CC2CC2)nc2cc3c(nc21)CCN(C[C@H](N)CF)C3=O` [Example 20, (S)-7-(2-amino-3-fluoropropyl)-2-(1-(cyclopropylmethyl)-1H-indol-2-yl)-3-methyl-3,5,6,7-tetrahydro-8H-imidazo[4,5-b][1,6]naphthyridin-8-one], for which the IC50 is > 1000 nM at hPAD4 enzyme [1] and 501 to 1000 nM on hPAD4 enzyme [2].

For the molecule `COCCn1c(-c2nc3cc4c(nc3n2C)CCN(C[C@H](N)CF)C4=O)cc2cccc(OC)c21` [Example 2, (S)-7-(2-amino-3-fluoropropyl)-2-(7-methoxy-1-(2-methoxyethyl)-1H-indol-2-yl)-3-methyl-3,5,6,7-tetrahydro-8H-imidazo[4,5-b][1,6]naphthyridin-8-one], the IC50 against hPAD4 enzyme [1] and on hPAD4 enzyme [2] was > 1000 nM each time.

Regarding `COc1cccc2cc(-c3nc4cc5c(nc4n3C)CCN(C[C@H](N)CF)C5=O)n(Cc3oncc3C)c12` [Example 9, (S)-7-(2-amino-3-fluoropropyl)-2-(7-methoxy-1-((4-methylisoxazol-5-yl)methyl)-1H-indol-2-yl)-3-methyl-3,5,6,7-tetrahydro-8H-imidazo[4,5-b][1,6]naphthyridin-8-one], the IC50 at hPAD4 enzyme [2] fell in the range of 101 to 500 nM.

Take `Cn1c(-c2cc3cccc(OC[C@@H]4CCC(=O)NC4)c3n2CC2CC2)nc2cc3c(nc21)CCN(C[C@H](N)CF)C3=O` [Example 37, 7-((S)-2-amino-3-fluoropropyl)-2-(1-(cyclopropylmethyl)-7-(((R)-6-oxopiperidin-3-yl)methoxy)-1H-indol-2-yl)-3-methyl-3,5,6,7-tetrahydro-8H-imidazo[4,5-b][1,6]naphthyridin-8-one]: at hPAD4 enzyme [2], the IC50 lay within 501 to 1000 nM.

Regarding `CC(Cc1cnco1)Oc1cc(F)cc2cc(-c3nc4cc5c(nc4n3C)CCN(C[C@H](N)CF)C5=O)n(CC3CC3)c12` (single isomer, unassigned) [Example 65b], the IC50 on hPAD4 enzyme [2] lay in the range of 101 to 500 nM.

Take `Cn1c(-c2cc3cccc(OC[C@H]4CCC(=O)NC4)c3n2CC2CC2)nc2cc3c(nc21)CCN(C[C@H](N)CF)C3=O` [Example 36, 7-((S)-2-amino-3-fluoropropyl)-2-(1-(cyclopropylmethyl)-7-(((S)-6-oxopiperidin-3-yl)methoxy)-1H-indol-2-yl)-3-methyl-3,5,6,7-tetrahydro-8H-imidazo[4,5-b][1,6]naphthyridin-8-one]: the IC50 on hPAD4 enzyme [2] is > 1000 nM.

One may read the IC50 as the concentration that gives 50% inhibition.
